Reference: US6552225B1, “Chemical compounds” (AstraZeneca AB, priority 1999, dated 2003)

Columns and labels:
PDH = details: cited from earlier work
[1] = cited from earlier work

melting point [°C] | SMILES | activity of PDH (PDH; after acute administration in animals) | proportion of PDH in its active form (PDH; single administration, 150 mg/kg, intraperitoneally) | glycaemia ([1]; Stacpoole et al., 1978) | plasma glucose ([1]; after repeated administration)
 | O=C(O)C(Cl)Cl [DCA, dichloroacetic acid] | increases the activity of PDH | increased the proportion of PDH in its active form | reducing glycaemia | significant decrease in plasma glucose
194 to 195 | COc1cc(S(=O)(=O)Nc2ccccc2)c(OC)cc1NC(=O)[C@@](C)(O)C(F)(F)F |  |  |  | 
